Experimental data reported in patent US6440984B1, “Use of aryl-substituted pyrimidines as insecticidal and acaricidal agents” (BASF Aktiengesellschaft, priority 1998, dated 2002).

How the values were obtained:
[1] = system: Spodoptera Eridania, 3rd Instar Larvae, Southern Armyworm (SAW); assay: Southern armyworm (SAW) leaf-dip test, observations at 5 days; type: in vivo; conditions: Southern Army Worm, rating scale; for pest or weed control at 1000 ppm: Spodoptera eridania, foliar, 120 h, read-out: SAW 2^ND-FOLIAR 1000 (ppm)
Procedure: (§1) Test solutions are prepared by dissolving the test compound in a 35% acetone in water mixture to give a concentration of 10,000 ppm. Subsequent dilutions are made with water as needed.
Spodoptera Eridania, 3rd Instar Larvae, Southern Armyworm (SAW)
A Sieva lima bean leaf expanded to 7-8 cm in length is dipped in the test solution with agitation for 3 seconds and allowed to dry in a hood. The leaf is then placed in a 100×10 mm petri dish containing a damp filter paper on the bottom and ten 3rd instar caterpillars. At 5 days, observations are made of mortality, reduced feeding, or any interference with normal molting.

[2] = system: Aphis Fabae, Mixed Instar, Bean Aphid (BA); assay: Bean aphid (BA) foliar spray test, mortality after 2 days; type: in vivo; conditions: rating scale; for pest or weed control at 300 ppm: Aphis fabae, 48 h, read-out: BA AD-FOLIAR 300 (ppm)
Procedure: as §1
Aphis Fabae, Mixed Instar, Bean Aphid (BA)
Pots containing single nasturtium plants (Tropaeolum sp.) about 5 cm tall are infested with about 100-200 aphids one day before the test. Each pot is sprayed with the test solution for 2 revolutions of a 4 rpm turntable in a hood. The spray is directed to give complete coverage of the plants and aphids. The sprayed pots are set on their sides on white trays and held for 2 days, following which mortality estimates are made. Essentially the same method is used with respect to cotton aphid (CA).

Row | SMILES | BA AD-FOLIAR 300 (ppm) [2] | pest or weed control at 300 ppm [2] | further results
1 | FC(F)(F)c1cc(Oc2nccc(-c3ccc(Cl)cc3)n2)ccc1Cl [Compound 1] | – | – | SAW 2^ND-FOLIAR 1000 (ppm) [1]: A (A 0-45% kill)
2 | O=[N+]([O-])c1ccc(Oc2nccc(-c3ccc(Cl)cc3)n2)cc1C(F)(F)F [Compound 3] | – | – | SAW 2^ND-FOLIAR 1000 (ppm) [1]: B (B 45-75% kill)
3 | Fc1ccc(Oc2nccc(-c3ccccc3)n2)cc1C(F)(F)F [Compound 6] | – | – | SAW 2^ND-FOLIAR 1000 (ppm) [1]: A (A 0-45% kill)
4 | O=[N+]([O-])c1ccc(Oc2nccc(-c3ccccc3)n2)cc1C(F)(F)F [Compound 8] | – | – | SAW 2^ND-FOLIAR 1000 (ppm) [1]: A (A 0-45% kill)
5 | O=[N+]([O-])c1ccc(-c2ccnc(Oc3cccc(C(F)(F)F)c3)n2)cc1 [Compound 9] | B (B 45-75% kill) | – | –
6 | CCc1ccc(-c2ccnc(Oc3ccc(Cl)c(C(F)(F)F)c3)n2)cc1 [Compound 17] | C (C 76-100% kill) | – | –
7 | CC(C)(C)c1ccc(-c2ccnc(Oc3ccc(Cl)c(C(F)(F)F)c3)n2)cc1 [Compound 25] | A (A 0-45% kill) | – | –
8 | CC(C)(C)c1ccc(-c2ccnc(Oc3ccc([N+](=O)[O-])c(C(F)(F)F)c3)n2)cc1 [Compound 26] | B (B 45-75% kill) | – | –
9 | FC(F)(F)c1ccc(-c2ccnc(Oc3ccc(Cl)c(Cl)c3)n2)cc1 [Compound 28] | A (A 0-45% kill) | – | –
10 | Fc1ccc(Oc2nccc(-c3ccc(C(F)(F)F)cc3)n2)cc1Cl [Compound 31] | B (B 45-75% kill) | – | –
11 | O=[N+]([O-])c1ccc(Oc2nccc(-c3ccc(C(F)(F)F)cc3)n2)cc1C(F)(F)F [Compound 33] | B (B 45-75% kill) | – | –
12 | O=[N+]([O-])c1ccc(Oc2nccc(-c3cccc(OC(F)(F)F)c3)n2)cc1C(F)(F)F [Compound 40] | – | – | SAW 2^ND-FOLIAR 1000 (ppm) [1]: A (A 0-45% kill)
13 | FC(F)(F)Oc1ccc(-c2ccnc(Oc3cc(Cl)cc(Cl)c3)n2)cc1 [Compound 44] | – | – | SAW 2^ND-FOLIAR 1000 (ppm) [1]: A (A 0-45% kill)
14 | FC(F)(F)Oc1ccc(-c2ccnc(Oc3cc(C(F)(F)F)cc(C(F)(F)F)c3)n2)cc1 [Compound 45] | C (C 76-100% kill) | – | –
15 | Fc1cc(-c2ccnc(Oc3cccc(C(F)(F)F)c3)n2)cc(C(F)(F)F)c1 [Compound 52] | – | – | SAW 2^ND-FOLIAR 1000 (ppm) [1]: A (A 0-45% kill)
16 | Fc1cc(-c2ccnc(Oc3ccc(Cl)c(Cl)c3)n2)cc(C(F)(F)F)c1 [Compound 58] | C (C 76-100% kill) | – | –
17 | Fc1cc(F)cc(-c2ccnc(Oc3cccc(C(F)(F)F)c3)n2)c1 [Compound 61] | C (C 76-100% kill) | – | –
18 | CCc1cnc(Oc2cccc(C(F)(F)F)c2)nc1-c1ccc(Cl)c(F)c1 [Compound 82] | – | – | pest or weed control at 1000 ppm [1]: 76 to 100%
19 | CSc1cc(-c2cccc(C(F)(F)F)c2)nc(Oc2cccc(C(F)(F)F)c2)n1 [Compound 108] | – | 45 to 75% | –
20 | FC(F)(F)c1cccc(Oc2nc(Cl)cc(-c3cccc(C(F)(F)F)c3)n2)c1 [Compound 110] | – | – | pest or weed control at 1000 ppm [1]: 76 to 100%
21 | CN(C)c1cc(-c2cccc(C(F)(F)F)c2)nc(Oc2cccc(C(F)(F)F)c2)n1 [Compound 111] | – | 76 to 100% | –
22 | Fc1ccc(Oc2nccc(-c3cccc(C(F)(F)F)c3)n2)cc1C(F)(F)F [Compound 112] | – | – | pest or weed control at 1000 ppm [1]: 0 to 45%
23 | CSc1cc(-c2ccc(Cl)cc2)nc(Oc2cccc(Cl)c2)n1 [Compound 119] | – | – | pest or weed control at 1000 ppm [1]: 45 to 75%
24 | Fc1ccc(Oc2nccc(-c3ccccc3)n2)cc1C(F)(F)F [Compound 130] | – | 0 to 45% | –
25 | Fc1cccc(Oc2nccc(-c3ccc(Cl)cc3)n2)c1 [Compound 137] | – | 76 to 100% | –
26 | N#Cc1cccc(Oc2nccc(-c3ccc(Cl)cc3)n2)c1 [Compound 141] | – | 45 to 75% | –
27 | COc1cccc(Oc2nccc(-c3ccc(Cl)cc3)n2)c1 [Compound 143] | – | 76 to 100% | –
28 | Clc1ccc(-c2ccnc(Oc3ccc(Cl)c(Cl)c3)n2)cc1 [Compound 151] | – | 45 to 75% | –
29 | COc1ccc(-c2ccnc(Oc3ccc(F)c(C(F)(F)F)c3)n2)cc1 [Compound 153] | – | 45 to 75% | –
30 | FC(F)(F)c1cccc(Oc2nccc(-c3ccc(Cl)c(Cl)c3)n2)c1 [Compound 154] | – | 45 to 75% | –
